Laboratory results reported in Sander's compilation of Henry's law constants (doi:10.1021/je900711h).

Assay: Henry solubility constant Hcp at 298.15 K (mol/(m3 Pa))
Conditions: reference: O’Farrell and Waghorne (2010)

| SMILES | Henry solubility constant Hcp |
| --- | --- |
| CC(=O)C(Cl)Cl [1,1-dichloro-2-propanone] | 0.33 |
| COCCOC [1,2-dimethoxyethane] | 2.1 |
| C1COCOC1 [1,3-dioxane] | 1.8 |
| CC(=O)CF [1-fluoro-2-propanone] | 0.46 |
| OCC(Cl)Cl [2,2-dichloroethanol] | 0.37 |
| OCC(F)F [2,2-difluoroethanol] | 0.92 |
| CCC(=O)CC [3-pentanone] | 0.21 |
| O=C1CCCC1 [cyclopentanone] | 2.8 |
| CCO [ethanol] | 2.2 |
| CC(C)=O [propanone] | 0.33 |
